Test results published in patent US10280159B2 (AbbVie Deutschland GmbH & Co. KG, priority 2015, dated 2019).

How the values were obtained:
Format in all cases: cell-based
[1] = biological target: T1, human S1PR5 (Homo sapiens, UniProt Q9H228); experiment: Intracellular Ca2+ release (FLIPR) agonist potency, S1P5; settings: recombinant CHO-K1 cells expressing human S1PR5, aequorin, Gq/i5; Calcium 5 FLIPR; read-out: S1P5 EC50 range
T1 construct: host or cells: CHO-K1
How it was run: (§1)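 Readout: FLIPR fluorescence of intracellular Ca2+ release in CHO-K1 cells co-expressing receptor, aequorin and Gq/i5. Data were normalized to the phospho-fingolimod curve; EC50 from nonlinear fit. Phospho-fingolimod served as positive control.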

[2] = biological target: T2, human S1PR1 (Homo sapiens, UniProt P21453); experiment: Intracellular Ca2+ release (FLIPR) agonist potency, S1P1; settings: recombinant CHO-K1 cells expressing human S1PR1, aequorin, Gq/i5; Calcium 5 FLIPR; read-out: S1P1 EC50
T2 construct: host or cells: CHO-K1
T2 sequence (P21453 whole entry): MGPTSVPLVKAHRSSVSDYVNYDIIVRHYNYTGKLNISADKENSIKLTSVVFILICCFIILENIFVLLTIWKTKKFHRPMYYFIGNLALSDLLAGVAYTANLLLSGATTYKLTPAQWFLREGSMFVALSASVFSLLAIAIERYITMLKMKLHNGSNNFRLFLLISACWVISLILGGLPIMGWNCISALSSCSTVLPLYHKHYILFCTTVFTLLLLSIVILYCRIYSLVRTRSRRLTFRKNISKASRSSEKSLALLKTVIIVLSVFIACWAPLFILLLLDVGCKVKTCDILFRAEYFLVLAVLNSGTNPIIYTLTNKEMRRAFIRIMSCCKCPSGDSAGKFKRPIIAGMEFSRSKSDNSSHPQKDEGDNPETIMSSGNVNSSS
How it was run: as §1

[3] = biological target: T3, human S1PR4 (Homo sapiens, UniProt O95977); experiment: Intracellular Ca2+ release (FLIPR) agonist potency, S1P4; settings: recombinant CHO-K1 cells expressing human S1PR4, aequorin, Gq/i5; Calcium 5 FLIPR; read-out: S1P4 EC50
T3 construct: host or cells: CHO-K1
T3 sequence (O95977 1-384): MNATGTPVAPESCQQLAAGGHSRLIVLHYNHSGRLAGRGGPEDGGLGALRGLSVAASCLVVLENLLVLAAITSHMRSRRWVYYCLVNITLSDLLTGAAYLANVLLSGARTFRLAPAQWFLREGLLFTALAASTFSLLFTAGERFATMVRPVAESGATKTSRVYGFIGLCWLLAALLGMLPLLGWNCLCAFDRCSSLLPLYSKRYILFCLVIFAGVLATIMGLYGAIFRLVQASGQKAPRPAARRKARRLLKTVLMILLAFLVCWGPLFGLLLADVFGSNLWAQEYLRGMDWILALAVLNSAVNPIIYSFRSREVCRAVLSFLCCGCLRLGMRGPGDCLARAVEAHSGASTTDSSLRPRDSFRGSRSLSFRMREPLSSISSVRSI
How it was run: as §1

T1 sequence (Q9H228 whole entry): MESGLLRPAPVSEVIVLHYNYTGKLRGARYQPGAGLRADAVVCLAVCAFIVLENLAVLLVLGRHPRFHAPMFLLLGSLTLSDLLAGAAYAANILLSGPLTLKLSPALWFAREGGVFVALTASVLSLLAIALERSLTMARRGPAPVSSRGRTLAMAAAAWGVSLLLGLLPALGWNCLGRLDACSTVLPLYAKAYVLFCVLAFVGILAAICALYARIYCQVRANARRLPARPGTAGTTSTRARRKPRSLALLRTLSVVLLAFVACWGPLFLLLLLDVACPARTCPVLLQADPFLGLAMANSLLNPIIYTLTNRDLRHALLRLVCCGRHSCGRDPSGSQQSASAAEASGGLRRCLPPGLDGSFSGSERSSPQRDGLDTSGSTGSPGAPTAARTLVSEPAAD

Row | Structure (SMILES) | EC50 [1] | EC50 [2] | EC50 [3]
1 | CC(C)(C)c1ccc(COc2ccc3c(c2)CCC(OCCC(=O)O)C3)cc1 (stereo not drawn) [Compound 192, 3-[6-[(4-tert-butylphenyl)methoxy]tetralin-2-yl]oxypropanoic acid] | 1 to 10 µM | > 1 µM | > 1 µM
2 | COc1ccc(COc2ccc3c(c2)CCC(OCC(=O)O)C3)cc1 (stereo not drawn) [Compound 165, 2-[6-[(4-methoxyphenyl)methoxy]tetralin-2-yl]oxyacetic acid] | 1 to 10 µM | > 1 µM | > 1 µM
3 | O=C(O)C1CN(C2COc3cc(OCCCc4cccc(F)c4)ccc3C2)C1 (stereo not drawn) [Compound 99, 1-[7-[3-(3-fluorophenyl)propoxy]chroman-3-yl]azetidine-3-carboxylic acid] | 1 to 10 µM | > 1 µM | > 1 µM
4 | O=C(O)C1CN(C2COc3cc(OCc4cc(F)cc(C(F)(F)F)c4)ccc3C2)C1 (stereo not drawn) [Compound 90, 1-[7-[[3-fluoro-5-(trifluoromethyl)phenyl]methoxy]chroman-3-yl]azetidine-3-carboxylic acid] | 0.01 to 0.1 µM | > 1 µM | < 1 µM
5 | O=C(O)C1CN(C2COc3cc(OCCOc4cccc(F)c4)ccc3C2)C1 (stereo not drawn) [Compound 97, 1-[7-[2-(3-fluorophenoxy)ethoxy]chroman-3-yl]azetidine-3-carboxylic acid] | 1 to 10 µM | > 1 µM | > 1 µM
6 | COc1cccc(F)c1COc1ccc2c(c1)OCC(N1CC(C(=O)O)C1)C2 (stereo not drawn) [Compound 101, 1-[7-[(2-fluoro-6-methoxy-phenyl)methoxy]chroman-3-yl]azetidine-3-carboxylic acid] | 1 to 10 µM | > 1 µM | > 1 µM
7 | COc1cc(F)cc(COc2ccc3c(c2)OCC(N2CC(C(=O)O)C2)C3)c1 (stereo not drawn) [Compound 100, 1-[7-[(3-fluoro-5-methoxy-phenyl)methoxy]chroman-3-yl]azetidine-3-carboxylic acid] | 1 to 10 µM | > 1 µM | > 1 µM
8 | O=C(O)CCOC1CCc2cc(OCc3ccccc3Cl)ccc2C1 (stereo not drawn) [Compound 188, 3-[6-[(2-chlorophenyl)methoxy]tetralin-2-yl]oxypropanoic acid] | 1 to 10 µM | > 1 µM | > 1 µM
9 | Cc1cccc(F)c1COc1ccc2c(c1)OCC(N1CC(C(=O)O)C1)C2 (stereo not drawn) [Compound 53, 1-(7-((2-fluoro-6-methylbenzyl)oxy)chroman-3-yl)azetidine-3-carboxylic acid] | 0.1 to 1 µM | > 1 µM | > 1 µM
10 | O=C(O)CNC1COc2cc(OCCc3c(Cl)cccc3Cl)ccc2C1 (stereo not drawn) [Compound 114, 2-[[7-[2-(2,6-dichlorophenyl)ethoxy]chroman-3-yl]amino]acetic acid] | 1 to 10 µM | > 1 µM | > 1 µM
11 | O=C(O)COC1CCc2cc(OCc3cc(F)ccc3Cl)ccc2C1 (stereo not drawn) [Compound 171, 2-[6-[(2-chloro-5-fluoro-phenyl)methoxy]tetralin-2-yl]oxyacetic acid] | 1 to 10 µM | > 1 µM | > 1 µM
12 | O=C(O)C1CN(C2COc3c(cccc3OCc3c(Cl)cccc3Cl)C2)C1 (stereo not drawn) [Compound 225, 1-[8-[(2,6-dichlorophenyl)methoxy]chroman-3-yl]azetidine-3-carboxylic acid] | 1 to 10 µM | > 1 µM | > 1 µM
13 | O=C(O)C1CN(C2COc3cc(OCc4ccc(C(F)(F)F)cc4)ccc3C2)C1 (stereo not drawn) [Compound 57, 1-(7-((4-(trifluoromethyl)benzyl)oxy)chroman-3-yl)azetidine-3-carboxylic acid] | 1 to 10 µM | > 1 µM | > 1 µM
14 | CCc1cccc(F)c1COc1ccc2c(c1)OCC(NC1(CC(=O)O)CC1)C2 (stereo not drawn) [Compound 129, 2-(1-((7-((2-ethyl-6-fluorobenzyl)oxy)chroman-3-yl)amino)cyclopropyl) acetic acid] | < 0.01 µM | > 1 µM | > 1 µM
15 | COc1cccc(COc2ccc3c(c2)CCC(OCC(=O)O)C3)c1 (stereo not drawn) [Compound 154, 2-[6-[(3-methoxyphenyl)methoxy]tetralin-2-yl]oxyacetic acid] | 1 to 10 µM | > 1 µM | > 1 µM
16 | CCc1cccc(F)c1COc1ccc2c(c1)OCC(N1CC(C(=O)O)C1)C2 (single isomer, unassigned) [Compound 147, 1-(7-((2-ethyl-6-fluorobenzyl)oxy)chroman-3-yl)azetidine-3-carboxylic acid] | < 0.01 µM | > 1 µM | < 1 µM
